The assay addresses T1, 5-HT2AR–CB1R heteromers (Homo sapiens, UniProt P28223).
T1 construct: expressed in transfected cells; host or cells: HEK293 (ATCC CRL-1573), transient reverse transfection
Kind of assay: NanoBiT BiLC peptide screening assay (LgBiT–CB1R + SmBiT–5-HT2AR). The assay is classed as cell-based. As to conditions: HEK293 cells transiently expressing LgBiT–CB1R and SmBiT–5-HT2AR, preincubated 1 h with 4 μM peptide, luminescence normalized to vehicle, n ≥ 5. The protocol: Figure 5. Identification of a small-stapled TM peptide disrupting 5-HT2AR–CB1R heteromers. A, schematic representation of the NanoBiT assay using N-terminally labeled constructs. In B, HEK293 cells transiently expressing the LgBT–CB1R and SmBiT–5-HT2AR complementary pairs were preincubated for 1 h at 37 °C with the indicated peptides (4 μM) or vehicle prior to luminescence recording. Data are mean RLU ± S.E. (error bars) (n ≥ 5) percentage of luminescence normalized to vehicle-treated cells. Statistical significance was evaluated by one-way ANOVA followed by Bonferroni post hoc tests, indicating significant differences over vehicle-treated cells (***, p ≤ 0.001; ****, p ≤ 0.0001) and for peptide 10 over its related peptides (####, p ≤ 0.0001). Peptide 10 potency (C) was evaluated as in A over increasing peptide concentrations (bottom) (n = 3). Alternatively, to assess the kinetics of the peptide 10–driven heteromer disruption (D), prior to the administration of the peptide, the cells were preincubated with substrate, and the luminescence was recorded over the following 30 min. Data are mean RLU ± S.E. (n ≥ 3) percentage of luminescence normalized to vehicle-treated cells.
To assess GPCR protein–protein interactions with the NanoBiT technology, HEK293 cells (50,000 cells/well) were seeded in poly-D-lysine–coated white clear bottom 96-well plates and reverse-transfected (see above) with the plasmids encoding the complementary NanoBiT hemiprotein fragments. For orientation screenings, cells were transfected with two different concentrations (50 and 100 ng/well) of each receptor alone or in combination with the investigated partner (see figure legends) in the presence of empty vector (pcDNA3.1(+)) to normalize the total amount of DNA/well. For studies in the presence of increasing nontagged receptor competitors, 100 ng of each receptor pair (CB1R LgBiT + CB1R SmBiT, 5-HT2AR LgBiT + 5-HT2AR SmBiT, and 5-HT2AR LgBiT + CB1R SmBiT) were co-transfected with increasing concentrations of the different nontagged constructs (from 0 to 300 ng/well), and the total amounts of DNA/well were normalized with empty vector (pcDNA3.1(+)). For the screening of stapled peptides, 50 ng/well of both LgBiT CB1R and SmBiT 5-HT2AR were reverse-transfected as detailed previously. 24 h post- transfection, the cell culture medium was removed, and the cells were starved in FBS-free DMEM for 4 h at 37 °C in a 5% CO2 humidified atmosphere. The cell culture medium was replaced by 100 μl of NanoBiT assay buffer (same as for cAMP measurements), and the plates were pre-equilibrated for 1 h at RT in the dark. When peptide pretreatment was required, peptides were added over this pre-equilibration step, except when studying inhibition kinetics, when the peptides were administered immediately after the baseline luminescence recording. 25 μl/well of a 5× solution of the Nano-Glo® live cell reagent containing the cell-permeable furimazine substrate dissolved in Nano-Glo® LCS dilution buffer were added, and the luminescence was immediately monitored in CLARIOstar® Multimode Plate Reader (BMG Labtech) with no lens (1-s integration time/well for 1 h every minute).
Dose–response curves were fitted using a four-parameter logistic nonlinear regression mode. Peptide stability data were fitted using a nonlinear regression mode for dissociation kinetics. All statistical tests, curve fitting, and graphing were performed using GraphPad Prism 8 (GraphPad Software, La Jolla, CA).

Where a SMILES comes first, the peptide text is derived from it. Bridges are numbered along the chain shown (N, C = ends). Where no end group is shown, it is not given here. [ ]: non-standard residue; d: D form. S5 = C=CCCC[C@](C)(N)C(=O)O; Nle = CCCC[C@H](N)C(=O)O

T1 sequence (P28223 2-471, one chain of several): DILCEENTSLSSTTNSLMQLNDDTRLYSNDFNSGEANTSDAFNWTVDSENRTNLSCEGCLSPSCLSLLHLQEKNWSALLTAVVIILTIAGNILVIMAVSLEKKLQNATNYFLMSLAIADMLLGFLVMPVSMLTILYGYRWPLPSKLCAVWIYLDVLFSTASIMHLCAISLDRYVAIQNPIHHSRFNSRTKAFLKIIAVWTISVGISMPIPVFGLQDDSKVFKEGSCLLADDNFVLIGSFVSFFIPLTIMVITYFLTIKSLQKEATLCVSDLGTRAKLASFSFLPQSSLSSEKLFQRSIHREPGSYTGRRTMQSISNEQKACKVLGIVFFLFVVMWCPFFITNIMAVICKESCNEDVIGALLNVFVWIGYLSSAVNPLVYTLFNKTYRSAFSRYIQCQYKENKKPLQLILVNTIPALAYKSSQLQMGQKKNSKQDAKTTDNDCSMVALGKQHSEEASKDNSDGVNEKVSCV

As for `CCCC[C@H](NC(=O)[C@]1(C)CCC/C=C\CCC[C@](C)(NC(=O)[C@H](Cc2ccccc2)NC(=O)[C@H](CC(C)C)NC(=O)[C@H](CC(C)C)NC(=O)[C@H](CC(C)C)NC(=O)[C@@H](N)C(C)C)C(=O)N[C@@H](C(C)C)C(=O)N[C@@H](Cc2ccc(O)cc2)C(=O)N[C@@H](C)C(=O)N1)C(=O)N[C@@H](Cc1ccc(O)cc1)C(=O)N[C@H](C(=O)N[C@@H](CC(C)C)C(=O)N[C@@H](Cc1c[nH]c2ccccc12)C(N)=O)[C@@H](C)CC` [Peptide 8] (H-VLLLF[S5]VYA[S5][Nle]YILW-NH2; staple (Z) 6-10), the “effect on NanoBiT luminescence (heteromer disruption)” value (“effect on NanoBiT luminescence” below) is listed as “not as efficient as compound 10”.

For `C=CCCC[C@](C)(NC(=O)[C@H](Cc1ccc(O)cc1)NC(=O)[C@@H](N)C(C)C)C(=O)N[C@@H](Cc1ccc(O)cc1)C(=O)N[C@@H](CCCC)C(=O)N[C@@](C)(CCCC=C)C(=O)N[C@H](C(=O)N[C@@H](CC(C)C)C(=O)N[C@@H](Cc1c[nH]c2ccccc12)C(N)=O)[C@@H](C)CC` [Peptide 11] (H-VY[S5]Y[Nle][S5]ILW-NH2), the “effect on NanoBiT luminescence” value is given as “neither the version lacking the TAT amino acid sequence, compound 9, nor the nonstaple, compound 11, peptides induced any change”.

Turning to “ETYLMFWIGVTSVLLLFIVYAYMYILWGRKKRRQRRR [TM5-TAT, reference compound]”, the “effect on NanoBiT luminescence” value is “decrease in the luminescence readout”.

Consider “GRKKRRQRRRKTLVLILVVLIICWGPLLAIMVY [TM6-TAT, reference compound]”, for which the “effect on NanoBiT luminescence” value was “decrease in the luminescence readout”.

The values are drawn from PMC6851324, “Design and development of stapled transmembrane peptides that disrupt the activity of G-protein–coupled receptor oligomers” (The Journal of Biological Chemistry, 2019).
